Here are results for 25 molecules from patent publication US10189842B2 (Agency for Science, Technology and Research, priority 2013, dated 2019).

The structures appear in SMILES notation.

The assay has as its system HEK293-STF3A cells. The assay is described as follows: STF3A assay (luciferase reporter). Conditions: Homo sapiens, 24 h, 1 day of treatment. It counts as cell-based, Human. A digest of the protocol:
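HEK293 cells carrying the STF reporter and expressing Wnt3A, seeded 2×10^4 per well overnight, then treated 1 day with compound at final 50 μM to 1.5 nM. Luciferase activity read by luminescence after Steady-Glo reagent, 10 min at room temperature.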
For orientation: In a reporter assay the amount or activity of a reporter protein is the signal.
`Cc1cc2n(n1)CCCN2C(=O)CCC(=O)NC1CCC(c2ccccc2)CC1` (stereo not shown) [Compound 80, 4-(2-methyl-6,7-dihydropyrazolo[1,5-a]pyrimidin-4(5H)-yl)-4-oxo-N-(4-phenylcyclohexyl)butanamide]: the IC50 was > 10000 nM.
For `Cc1cc2n(n1)CCCN2C(=O)CCC(=O)NC1CCN(c2ccccc2)CC1` [Compound 81, 4-(2-methyl-6,7-dihydropyrazolo[1,5-a]pyrimidin-4(5H)-yl)-4-oxo-N-(1-phenylpiperidin-4-yl)butanamide] the value was > 10000 nM.
For `Cc1cc2n(n1)CCCN2C(=O)CCC(=O)Nc1ccc(C2CCN(C)CC2)cc1` [Compound 82, 4-(2-methyl-6,7-dihydropyrazolo[1,5-a]pyrimidin-4(5H)-yl)-N-(4-(1-methylpiperidin-4-yl)phenyl)-4-oxobutanamide] the value was > 10000 nM.
For the molecule `Cc1cc2n(n1)CCCN2C(=O)CCC(=O)Nc1ccc(-c2cccc(Cl)c2)nc1` [Compound 83, N-(6-(3-chlorophenyl)pyridin-3-yl)-4-(2-methyl-6,7-dihydropyrazolo[1,5-a]pyrimidin-4(5H)-yl)-4-oxobutanamide], the IC50 was < 100 nM.
Take `Cc1cc2n(n1)CCCN2C(=O)CCC(=O)Nc1ccc(-c2cccc(F)c2)nc1` [Compound 84, N-(6-(3-fluorophenyl)pyridin-3-yl)-4-(2-methyl-6,7-dihydropyrazolo[1,5-a]pyrimidin-4(5H)-yl)-4-oxobutanamide]: the IC50 is < 100 nM.
For the molecule `Cc1cccc(-c2ccc(NC(=O)CCC(=O)N3CCCn4nc(C)cc43)cn2)c1` [Compound 85, 4-(2-methyl-6,7-dihydropyrazolo[1,5-a]pyrimidin-4(5H)-yl)-4-oxo-N-(6-(m-tolyl)pyridin-3-yl)butanamide], the 50% inhibitory concentration (IC50) is < 100 nM.
For `Cc1cc2n(n1)CCCN2C(=O)CCC(=O)Nc1cnc(-c2ccccc2)c(C)c1` [Compound 86, 4-(2-methyl-6,7-dihydropyrazolo[1,5-a]pyrimidin-4(5H)-yl)-N-(5-methyl-6-phenylpyridin-3-yl)-4-oxobutanamide] the value was < 5000 nM; for `Cc1cc2n(n1)CCCN2C(=O)CCC(=O)Nc1ccc(-c2ccc(F)cc2)nc1` [Compound 87, N-(6-(4-fluorophenyl)pyridin-3-yl)-4-(2-methyl-6,7-dihydropyrazolo[1,5-a]pyrimidin-4(5H)-yl)-4-oxobutanamide], < 1000 nM.
For `Cc1cc2n(n1)CCCN2C(=O)CCC(=O)Nc1ccc(-c2cccc(Cl)c2)cn1` [Compound 88] the value was < 100 nM.
Regarding `Cc1cc2n(n1)CCCN2C(=O)CCC(=O)Nc1ccc(-c2cccc(F)c2)cn1` [Compound 89, N-(5-(3-fluorophenyl)pyridin-2-yl)-4-(2-methyl-6,7-dihydropyrazolo[1,5-a]pyrimidin-4(5H)-yl)-4-oxobutanamide], the IC50 is < 100 nM.
For `Cc1cc2n(n1)CCCN2C(=O)CCC(=O)Nc1ccc(-c2ccc(F)cc2)cn1` [Compound 90, N-(5-(4-fluorophenyl)pyridin-2-yl)-4-(2-methyl-6,7-dihydropyrazolo[1,5-a]pyrimidin-4(5H)-yl)-4-oxobutanamide] the value was < 100 nM; for `Cc1cc2n(n1)CCCN2C(=O)CCC(=O)Nc1ncc(-c2ccccc2)cc1C` [Compound 91, N-(3-methyl-5-phenylpyridin-2-yl)-4-(2-methyl-6,7-dihydropyrazolo[1,5-a]pyrimidin-4(5H)-yl)-4-oxobutanamide], < 5000 nM.
For `Cc1cc2n(n1)CCCN2C(=O)CCC(=O)Nc1cc(C)c(-c2ccccc2)cn1` [Compound 92, N-(4-methyl-5-phenylpyridin-2-yl)-4-(2-methyl-6,7-dihydropyrazolo[1,5-a]pyrimidin-4(5H)-yl)-4-oxobutanamide] the value was < 1000 nM; for `Cc1cccc(-c2ccc(NC(=O)CCC(=O)N3CCCn4nc(C)cc43)nc2)c1` [Compound 93, 4-(2-methyl-6,7-dihydropyrazolo[1,5-a]pyrimidin-4(5H)-yl)-4-oxo-N-(5-(m-tolyl)pyridin-2-yl)butanamide], < 100 nM; for `Cc1cc2n(n1)CCCN2C(=O)CCC(=O)Nc1ccc(-c2ccc(F)cn2)cn1` [Compound 94, N-(5-fluoro-2,3′-bipyridin-6′-yl)-4-(2-methyl-6,7-dihydropyrazolo[1,5-a]pyrimidin-4(5H)-yl)-4-oxobutanamide], < 100 nM.
For `Cc1cc2n(n1)CCCN2C(=O)CCC(=O)Nc1ccc(-c2cc(F)ccn2)cn1` [Compound 95, N-(4-fluoro-2,3′-bipyridin-6′-yl)-4-(2-methyl-6,7-dihydropyrazolo[1,5-a]pyrimidin-4(5H)-yl)-4-oxobutanamide] the value was < 100 nM; for `Cc1cccc(-c2ccc(NC(=O)CCC(=O)N3CCCn4nc(C)cc43)nc2)n1` [Compound 96, 4-(2-methyl-6,7-dihydropyrazolo[1,5-a]pyrimidin-4(5H)-yl)-N-(6-methyl-[2,3′-bipyridin]-6′-yl)-4-oxobutanamide], < 100 nM; for `Cc1cc2n(n1)CCCN2C(=O)CCC(=O)Nc1ccc(-c2cccc(Cl)c2)nn1` [Compound 97, N-(6-(3-chlorophenyl)pyridazin-3-yl)-4-(2-methyl-6,7-dihydropyrazolo[1,5-a]pyrimidin-4(5H)-yl)-4-oxobutanamide], < 100 nM.
In the case of `Cc1cc2n(n1)CCCN2C(=O)CCC(=O)Nc1ccc(-c2cccc(F)c2)nn1` [Compound 98, N-(6-(3-fluorophenyl)pyridazin-3-yl)-4-(2-methyl-6,7-dihydropyrazolo[1,5-a]pyrimidin-4(5H)-yl)-4-oxobutanamide], the 50% inhibitory concentration (IC50) was < 100 nM.
Regarding `Cc1cccc(-c2ccc(NC(=O)CCC(=O)N3CCCn4nc(C)cc43)nn2)c1` [Compound 99, 4-(2-methyl-6,7-dihydropyrazolo[1,5-a]pyrimidin-4(5H)-yl)-4-oxo-N-(6-(m-tolyl)pyridazin-3-yl)butanamide], the IC50 is < 100 nM.
For `Cc1cc2n(n1)CCCN2C(=O)CCC(=O)Nc1ccc(-c2ccc(Cl)cc2)nn1` [Compound 100, N-[6-(4-chlorophenyl)pyridazin-3-yl]-4-{2-methyl-5H,6H,7H-pyrazolo[1,5-a]pyrimidin-4-yl}-4-oxobutanamide] the value was < 100 nM.
For `Cc1cc2n(n1)CCCN2C(=O)CCC(=O)Nc1ccc(-c2ccc(F)cc2)nn1` [Compound 101, N-(6-(4-fluorophenyl)pyridazin-3-yl)-4-(2-methyl-6,7-dihydropyrazolo[1,5-a]pyrimidin-4(5H)-yl)-4-oxobutanamide] the value was < 100 nM; for `Cc1cc2n(n1)CCCN2C(=O)CCC(=O)Nc1ccc(-c2cncc(Cl)c2)nn1` [Compound 102, N-(6-(5-chloropyridin-3-yl)pyridazin-3-yl)-4-(2-methyl-6,7-dihydropyrazolo[1,5-a]pyrimidin-4(5H)-yl)-4-oxobutanamide], < 100 nM.
For `Cc1cc2n(n1)CCCN2C(=O)CCC(=O)Nc1ccc(-c2cncc(F)c2)nn1` [Compound 103, N-(6-(5-fluoropyridin-3-yl)pyridazin-3-yl)-4-(2-methyl-6,7-dihydropyrazolo[1,5-a]pyrimidin-4(5H)-yl)-4-oxobutanamide] the value was < 100 nM; for `Cc1cncc(-c2ccc(NC(=O)CCC(=O)N3CCCn4nc(C)cc43)nn2)c1` [Compound 104, 4-(2-methyl-6,7-dihydropyrazolo[1,5-a]pyrimidin-4(5H)-yl)-N-(6-(5-methylpyridin-3-yl)pyridazin-3-yl)-4-oxobutanamide], < 100 nM.

As usually defined, the IC50 is the point on the concentration scale where inhibition reaches its midpoint.
